This test concerns the target α-glucosidase (Saccharomyces cerevisiae, UniProt P53341). Description: α-Glucosidase inhibitory assay. Conditions: in vitro. Type of test: biochemical. As to the method: Alpha-glucosidase is an enzyme that hydrolyzes the carbohydrates to monosaccharides in the final step of carbohydrate digestion. […] In order to search for bioactive substances to treat type 2 diabetes using Diaphragma juglandis Fructus, all isolated constituents (1–37) were assessed for antidiabetic activity using an in vitro α-glycosidase inhibition assay.
The α-glucosidase was obtained from Sigma-Aldrich (Shanghai) Trading Co., Ltd (Shanghai, China). p-nitrophenyl-α-D-glucopyranoside was obtained from Macklin Co., Ltd. (Lot# C12592180, Shanghai, China).
The α-glucosidase inhibition assay was performed according to a previous report with a slight difference: the concentration of α-glucosidase was diluted to 0.15 unit/mL. The volume of α-glucosidase added to the 96-well plate was 10 μL.
Sequence of α-glucosidase (P53341 whole entry): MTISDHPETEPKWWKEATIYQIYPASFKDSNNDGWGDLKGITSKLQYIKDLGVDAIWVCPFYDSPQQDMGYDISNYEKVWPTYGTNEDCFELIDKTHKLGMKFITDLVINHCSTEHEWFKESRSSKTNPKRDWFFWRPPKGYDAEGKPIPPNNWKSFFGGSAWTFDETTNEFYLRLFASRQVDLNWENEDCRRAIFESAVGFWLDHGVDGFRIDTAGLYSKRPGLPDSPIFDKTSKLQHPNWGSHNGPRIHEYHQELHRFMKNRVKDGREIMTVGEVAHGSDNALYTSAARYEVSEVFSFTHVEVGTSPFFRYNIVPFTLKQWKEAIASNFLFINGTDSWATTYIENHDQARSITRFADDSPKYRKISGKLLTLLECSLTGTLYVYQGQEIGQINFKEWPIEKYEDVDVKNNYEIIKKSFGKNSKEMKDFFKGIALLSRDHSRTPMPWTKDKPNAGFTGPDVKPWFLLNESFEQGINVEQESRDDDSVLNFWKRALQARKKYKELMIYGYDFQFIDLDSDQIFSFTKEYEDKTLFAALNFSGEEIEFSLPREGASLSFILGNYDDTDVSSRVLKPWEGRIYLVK
On to `O=C1c2c(O)cc(O)cc2OC(c2ccc(O)c(O)c2)C1O` (stereo not shown) [Compound 13, taxifolin], for which the “α-glucosidase inhibition activity (in words)” value is reported as “quite potent”. Turning to `O=c1cc(-c2ccc(O)c(O)c2)oc2cc(O)cc(O)c12` [Compound 28, luteolin], the “α-glucosidase inhibition activity (in words)” value is “quite potent”.

For `Oc1cc(O)c2c(c1)O[C@@H](c1ccc(O)c(O)c1)[C@H](O)C2` [Compound 16, (+)-catechin], the “α-glucosidase inhibition activity (in words)” value is on record as “quite potent”.

In the case of `O=c1c(O)c(-c2ccc(O)c(O)c2)oc2cc(O)cc(O)c12` [Compound 21, quercetin], the “α-glucosidase inhibition activity (in words)” value was “quite potent”.

(Values after publication PMC9143591, “The Chemical Constituents of Diaphragma Juglandis Fructus and Their Inhibitory Effect on α-Glucosidase Activity” (Molecules, 2022).)
